target: CDK2 (UniProt P24941); assay: Enzyme Assay; settings: not given

SMILES | IC50 [µM]
COC(=O)CCC#Cc1cccc2c1/C(=C/c1[nH]ccc1OC)C(=O)N2 | < 4
COc1cc[nH]c1/C=C1\C(=O)Nc2ccc(N)c(C#CCO)c21 | < 4
COc1cc[nH]c1/C=C1\C(=O)Nc2cccc(C#CCCCO)c21 | < 4
Cc1nc[nH]c1/C=C1\C(=O)Nc2ccc(F)c(C#CCOC(N)=O)c21 | < 4
COc1cc[nH]c1/C=C1\C(=O)Nc2cccc(C#CC3(O)CCCCC3)c21 | < 4
COc1cc[nH]c1/C=C1\C(=O)Nc2cccc(C#CCCC(N)=O)c21 | < 4
COc1cc[nH]c1/C=C1\C(=O)Nc2cccc(C#CCCCCO)c21 | < 4
COc1cc[nH]c1/C=C1\C(=O)Nc2cccc(C#CCC(C(=O)O)C(=O)O)c21 | < 4
COc1cc[nH]c1/C=C1\C(=O)Nc2cccc(C#CCO)c21 | < 4
CCC(O)C#Cc1c(F)ccc2c1/C(=C/c1[nH]cnc1C)C(=O)N2 (configuration not stated) | < 4
CCCC(C)(O)C#Cc1cccc2c1/C(=C/c1[nH]ccc1OC)C(=O)N2 (configuration not stated) | < 4
CCCCC[C@H](O)C#Cc1cccc2c1/C(=C/c1[nH]ccc1OC)C(=O)N2 | < 4
Cc1nc[nH]c1/C=C1\C(=O)Nc2ccc(F)c(C#CCO)c21 | < 4
Cc1nc[nH]c1/C=C1\C(=O)Nc2ccc(F)c(C#CCN3CCOCC3)c21 | < 4
COc1cc[nH]c1/C=C1\C(=O)Nc2cccc(C#CCCC(=O)O)c21 | < 4
COC(=O)NCC#Cc1cccc2c1/C(=C/c1[nH]ccc1OC)C(=O)N2 | < 4
CCN(CC)CC#Cc1c(F)ccc2c1/C(=C/c1[nH]cnc1C)C(=O)N2 | < 4
COCC#Cc1cccc2c1/C(=C/c1[nH]ccc1OC)C(=O)N2 | < 4
COc1cc[nH]c1/C=C1\C(=O)Nc2cccc(C#CC(C)(C)O)c21 | < 4
CNC(=O)OCC#Cc1cccc2c1/C(=C/c1[nH]ccc1OC)C(=O)N2 | < 4
CNCC#Cc1cccc2c1/C(=C/c1[nH]ccc1OC)C(=O)N2 | < 4
Cc1nc[nH]c1/C=C1\C(=O)Nc2ccc(F)c(C#CC(C)(C)N)c21 | < 4
COC(=O)CCCC#Cc1cccc2c1/C(=C/c1[nH]ccc1OC)C(=O)N2 | < 4

SMILES | IC50 [µM]
COc1cc[nH]c1/C=C1\C(=O)Nc2cccc(C#CCOC(N)=O)c21 | < 4
COc1cc[nH]c1/C=C1\C(=O)Nc2ccc(NC(=O)c3ccncc3)c(C#CCO)c21 | < 4
CNCC#Cc1c(F)ccc2c1/C(=C/c1[nH]cnc1C)C(=O)N2 | < 4
COC(=O)C(CC#Cc1cccc2c1/C(=C/c1[nH]ccc1OC)C(=O)N2)C(=O)OC | < 4
CCOC(=O)C(CC#Cc1c(F)ccc2c1/C(=C/c1[nH]cnc1C)C(=O)N2)NC(C)=O (configuration not stated) | < 4
CCCCCC(O)C#Cc1cccc2c1/C(=C/c1[nH]ccc1OC)C(=O)N2 (configuration not stated) | < 4
Cc1nc[nH]c1/C=C1\C(=O)Nc2ccc(F)c(C#CCN(C)C)c21 | < 4
C#CCOCCO | < 4
CCC(O)C#Cc1cccc2c1/C(=C/c1[nH]ccc1OC)C(=O)N2 (configuration not stated) | < 4
COc1cc[nH]c1/C=C1\C(=O)Nc2cccc(C#CCCCC(=O)O)c21 | < 4
Cc1nc[nH]c1/C=C1\C(=O)Nc2ccc(F)c(C#CCNC(N)=O)c21 | < 4
Cc1nc[nH]c1/C=C1\C(=O)Nc2ccc(F)c(C#CCC(C)O)c21 (configuration not stated) | < 4
COc1cc[nH]c1/C=C1\C(=O)Nc2cccc(C#CCCO)c21 | < 4
CCC(O)C#Cc1c([N+](=O)[O-])ccc2c1/C(=C/c1[nH]cnc1C)C(=O)N2 (configuration not stated) | < 4
COc1cc[nH]c1/C=C1\C(=O)Nc2cccc(C#CC3(O)CCCC3)c21 | < 4
COC(=O)CCC#Cc1c(N)ccc2c1/C(=C/c1[nH]ccc1OC)C(=O)N2 | < 4
COc1cc[nH]c1/C=C1\C(=O)Nc2cccc(C#CC(C)(O)CC(C)C)c21 (configuration not stated) | < 4
COc1cc[nH]c1/C=C1\C(=O)Nc2cccc(C#CCNCc3ccccc3)c21 | < 4
COc1cc[nH]c1/C=C1\C(=O)Nc2cccc(C#CCCCC(N)=O)c21 | < 4
CCC(C)(O)C#Cc1cccc2c1/C(=C/c1[nH]ccc1OC)C(=O)N2 (configuration not stated) | < 4
COc1cc[nH]c1/C=C1\C(=O)Nc2ccc(NC(=O)Cc3cccs3)c(C#CCCC(=O)O)c21 | < 4
COc1cc[nH]c1/C=C1\C(=O)Nc2cccc(C#CCN)c21 | < 4

same assay, conditions: concentration not given here

SMILES | inhibition [%]
COC(=O)CCC#Cc1c([N+](=O)[O-])ccc2c1/C(=C/c1[nH]ccc1OC)C(=O)N2 | > 60
COc1cc[nH]c1/C=C1\C(=O)Nc2ccc([N+](=O)[O-])c(C#CCO)c21 | > 90
COC(=O)NCC#Cc1c(F)ccc2c1/C(=C/c1[nH]cnc1C)C(=O)N2 | > 90

target: CDK2 (human) (UniProt P24941); assay: Cell-Based Assay; settings: mda-mb-435

SMILES | IC50 [µM]
CCC(O)C#Cc1c(F)ccc2c1/C(=C/c1[nH]cnc1C)C(=O)N2 (configuration not stated) | < 3.5
CCOC(=O)C(CC#Cc1c(F)ccc2c1/C(=C/c1[nH]cnc1C)C(=O)N2)NC(C)=O (configuration not stated) | < 3.5
Cc1nc[nH]c1/C=C1\C(=O)Nc2ccc(F)c(C#CCC(C)O)c21 (configuration not stated) | < 3.5
CCC(O)C#Cc1c([N+](=O)[O-])ccc2c1/C(=C/c1[nH]cnc1C)C(=O)N2 (configuration not stated) | < 3.5
COC(=O)NCC#Cc1c(F)ccc2c1/C(=C/c1[nH]cnc1C)C(=O)N2 | < 3.5

same assay, conditions: sw480

SMILES | IC50 [µM]
CCC(N)(C#Cc1c(F)ccc2c1/C(=C/c1[nH]cnc1C)C(=O)N2)CC | < 1
CCC(O)C#Cc1c(F)ccc2c1/C(=C/c1[nH]cnc1C)C(=O)N2 (configuration not stated) | < 1
CNCC#Cc1c(F)ccc2c1/C(=C/c1[nH]cnc1C)C(=O)N2 | < 1
CCC(O)C#Cc1c([N+](=O)[O-])ccc2c1/C(=C/c1[nH]cnc1C)C(=O)N2 (configuration not stated) | < 1

Reference: the Kinase Knowledgebase extract (Sharma et al. 2016)
